In ChEMBL document CHEMBL4715717, “Analysis of the aplyronine A-induced protein-protein interaction between actin and tubulin by surface plasmon resonance” (Bioorg Med Chem, 2016):
The source made the active and inactive calls. The calls are words filed in the database; no cut-off is given here.

Tests used:
Homo sapiens [1] = organism: Homo sapiens; assay: Induction of aplyronine A-actin complex-tubulin (unknown origin) protein-protein interaction assessed as association of actin-aplyronine A-tubulin complex by SPR analysis
Homo sapiens [2] = organism: Homo sapiens; assay: Induction of aplyronine A-actin complex-tubulin (unknown origin) protein-protein interaction assessed as actin-aplyronine A-tubulin ternary complex formation by SPR analysis
HeLa S3 = assay: Cytotoxicity against human HeLa S3 cells assessed as reduction in cell viability measured after 96 hrs by MTT assay; type: functional, cell-based; settings: HeLa S3, 96 h
Homo sapiens [3] = organism: Homo sapiens; assay: Binding affinity to streptavidin immobilized actin (unknown origin) assessed as on rate constant by SPR analysis
[4] = Binding affinity to streptavidin immobilized actin (unknown origin) assessed as off rate constant by SPR analysis; design: species or system Homo sapiens
[5] = Binding affinity to streptavidin immobilized actin (unknown origin) assessed as dissociation constant by SPR analysis; design: species or system Homo sapiens
[6] = target: Actin, alpha skeletal muscle (Oryctolagus cuniculus, UniProt P68135); assay: Induction of rabbit skeletal muscle actin depolymerization measured after 120 mins by fluorescence assay
Homo sapiens [7] = organism: Homo sapiens; assay: Inhibition of aplyronine A-actin complex-tubulin (unknown origin) protein-protein interaction at 1 equivalent by SPR analysis
Homo sapiens [8] = organism: Homo sapiens; assay: Induction of immobilized actin-tubulin (unknown origin) protein-protein interaction by SPR analysis
Homo sapiens [9] = organism: Homo sapiens; assay: Induction of microtubule (unknown origin) depolymerization pretreated with paclitaxel followed by compound treatment measured after 1 hr in presence of native and biotinylated tubulin and actin by ultracentrifugation
Homo sapiens [10] = organism: Homo sapiens; assay: Binding affinity to actin (unknown origin) assessed as 1:1:1 ratio of actin-compound-tubulin heterodimer complex formation by measuring peak time in presence of 9:1 ratio of native/biotinylated tubulin by gel permeation HPLC analysis
Homo sapiens [11] = organism: Homo sapiens; assay: Binding affinity to actin (unknown origin) assessed as 1:1:1 ratio of actin-compound-tubulin heterodimer complex formation by measuring molecular weight in presence of 9:1 ratio of native/biotinylated tubulin by gel permeation HPLC analysis
Homo sapiens [12] = organism: Homo sapiens; assay: Binding affinity to actin (unknown origin) assessed as on rate constant for actin-compound-tubulin heterodimer complex
[13] = Binding affinity to actin (unknown origin) assessed as off rate constant for actin-compound-tubulin heterodimer complex; design: species or system Homo sapiens
[14] = Binding affinity to actin (unknown origin) assessed as dissociation constant for actin-compound-tubulin heterodimer complex at 25 degreeC; design: species or system Homo sapiens
Homo sapiens [15] = organism: Homo sapiens; assay: Binding affinity to actin (unknown origin) assessed as dissociation constant for actin-compound-tubulin heterodimer complex at 8 degreeC
Homo sapiens [16] = organism: Homo sapiens; assay: Binding affinity to actin (unknown origin) assessed as thermal stability of actin-compound-tubulin heterodimer complex at 25 degreeC
Homo sapiens [17] = organism: Homo sapiens; assay: Binding affinity to actin (unknown origin) assessed as thermal stability of actin-compound-immobilized tubulin heterodimer complex

| Ka (Homo sapiens [3]) | Kd [4] | Kd [5] [nM] | Compound | IC50 (HeLa S3) [nM] | Kd [6] [nM] | inhibition (Homo sapiens [7]) [%] | also measured |
| --- | --- | --- | --- | --- | --- | --- | --- |
| 4.54 10^3/M/s | 1.83 10^-2/s | 4020 | COCC(C(=O)O[C@@H]1C/C=C/C=C/C(=O)O[C@H]([C@@H](C)[C@@H](O)[C@@H](C)CC[C@@H](OC(=O)C(C)N(C)C)[C@H](C)[C@H](OC(C)=O)[C@H](C)C/C=N/NC(=O)CCOCCOCCOCCOCCNC(=O)CCCC[C@@H]2SC[C@@H]3NC(=O)N[C@@H]32)C/C=C/[C@H](OC)C[C@H](C)C/C=C(\C)[C@@H](OC)CC[C@@H](C)[C@@H](O)[C@@H]1C)N(C)C (some centres not stated) | 0.096 | – | – | – |
| 8.38 10^2/M/s | 1.51 10^-2/s | 18000 | CO[C@H]1CC[C@@H](C)[C@@H](O)[C@H](C)[C@H](O)C/C=C/C=C/C(=O)O[C@H]([C@@H](C)[C@@H](O)[C@@H](C)CC[C@@H](OC(=O)C(C)N(C)C)[C@H](C)[C@H](OC(C)=O)[C@H](C)C/C=N/NC(=O)CCOCCOCCOCCOCCNC(=O)CCCC[C@@H]2SC[C@@H]3NC(=O)N[C@@H]32)C/C=C/[C@H](OC)C[C@H](C)C/C=C/1C (some centres not stated) | 700 | – | – | – |

Further lines, the molecule ahead of its results:

| Compound | Ka (Homo sapiens [3]) | Kd [4] | Kd [5] [nM] | IC50 (HeLa S3) [nM] | Kd [6] [nM] | inhibition (Homo sapiens [7]) [%] | also measured |
| --- | --- | --- | --- | --- | --- | --- | --- |
| C/C1=C/C(=O)O[C@@H]2C[C@@H](CC[C@H](C)/C=C\C=C\CC1)O[C@@](O)([C@@H]1CSC(=O)N1)C2 | – | – | – | – | – | – | Activity (Homo sapiens [1]): Active; Activity (Homo sapiens [2]): Active |
| COC[C@@H](OC)C(=O)O[C@H](CC[C@H](C)[C@H](C[C@@H]1OC(=O)C[C@@H](O)C/C=C/C(=O)[C@H](C)[C@H](OC)c2coc(n2)-c2coc(n2)-c2coc(n2)/C=C/C[C@H](OC)[C@H]1C)OC)[C@H](C)[C@H](OC(C)=O)[C@H](C)/C=C/N(C)C=O | – | – | – | – | 13 | 100 | – |
| COCC(C(=O)O[C@@H]1C/C=C/C=C/C(=O)O[C@H]([C@@H](C)[C@@H](O)[C@@H](C)CC[C@@H](OC(=O)C(C)N(C)C)[C@H](C)[C@H](OC(C)=O)[C@H](C)/C=C/N(C)C=O)C/C=C/[C@H](OC)C[C@H](C)C/C=C(\C)[C@@H](OC)CC[C@@H](C)[C@@H](O)[C@@H]1C)N(C)C (some centres not stated) [APLYRONINE A] | – | – | – | 0.01 | 100 | 100 | Activity (Homo sapiens [8]): inactive; Activity (Homo sapiens [9]): Active; TIME (Homo sapiens [10]): 0.265 h; Activity (Homo sapiens [11]): 145 kDa; Ka (Homo sapiens [12]): 4.78 10^4/M/s; Kd [13]: 8.82 10^-2/s; Kd [14]: 1840 nM; Ka (Homo sapiens [15]): 3 10^6/M; Activity (Homo sapiens [16]): inactive; Activity (Homo sapiens [17]): inactive |
| CO[C@H]1CC[C@@H](C)[C@@H](O)[C@H](C)[C@H](O)C/C=C/C=C/C(=O)O[C@H]([C@@H](C)[C@@H](O)[C@@H](C)CC[C@@H](OC(=O)C(C)N(C)C)[C@H](C)[C@H](OC(C)=O)[C@H](C)/C=C/N(C)C=O)C/C=C/[C@H](OC)C[C@H](C)C/C=C/1C (some centres not stated) [APLYRONINE C] | – | – | – | 17 | – | 100 | – |
